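In this assay, cells in 96-well plates receive the compound at five concentrations for 48 hours. Endpoints are linearly interpolated between the surrounding concentrations. TGI: concentration producing complete growth inhibition.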
Assays:
Experiment in all cases: DTP human tumour cell line panel, 48 h
SF-268 CNS = system: SF-268 CNS
A498 renal = system: A498 renal
SK-MEL-5 melanoma = system: SK-MEL-5 melanoma
HCT-15 colon = system: HCT-15 colon
NCI-H460 lung = system: NCI-H460 lung
M14 melanoma = system: M14 melanoma
OVCAR-4 ovarian = system: OVCAR-4 ovarian
SNB-19 CNS = system: SNB-19 CNS
PC-3 prostate = system: PC-3 prostate
T-47D breast = system: T-47D breast
786-0 renal = system: 786-0 renal
HOP-62 NSCLC = system: HOP-62 NSCLC
KM12 colon = system: KM12 colon
MDA-N = system: MDA-N
COLO 205 colon = system: COLO 205 colon
MOLT-4 leukemia = system: MOLT-4 leukemia
MALME-3M melanoma = system: MALME-3M melanoma
NCI/ADR-RES ovarian = system: NCI/ADR-RES ovarian
SN12C renal = system: SN12C renal
HCC-2998 colon = system: HCC-2998 colon
RPMI-8226 leukemia = system: RPMI-8226 leukemia
U251 CNS = system: U251 CNS
SR leukemia = system: SR leukemia
NCI-H23 lung = system: NCI-H23 lung
CCRF-CEM leukemia = system: CCRF-CEM leukemia
SW-620 colon = system: SW-620 colon
UO-31 renal = system: UO-31 renal
SK-MEL-28 melanoma = system: SK-MEL-28 melanoma
LOX IMVI melanoma = system: LOX IMVI melanoma
OVCAR-5 ovarian = system: OVCAR-5 ovarian
SNB-75 CNS = system: SNB-75 CNS
NCI-H226 lung = system: NCI-H226 lung
BT-549 breast = system: BT-549 breast
IGROV1 ovarian = system: IGROV1 ovarian
CAKI-1 renal = system: CAKI-1 renal
UACC-62 melanoma = system: UACC-62 melanoma
K-562 leukemia = system: K-562 leukemia
RXF 393 renal = system: RXF 393 renal
HT29 colon = system: HT29 colon
ACHN renal = system: ACHN renal
MCF7 breast = system: MCF7 breast
OVCAR-8 ovarian = system: OVCAR-8 ovarian
SK-MEL-2 melanoma = system: SK-MEL-2 melanoma
MDA-MB-231 breast = system: MDA-MB-231 breast
HS 578T breast = system: HS 578T breast
DU-145 prostate = system: DU-145 prostate
SK-OV-3 ovarian = system: SK-OV-3 ovarian
NCI-H522 lung = system: NCI-H522 lung
MDA-MB-435 = system: MDA-MB-435
HCT-116 colon = system: HCT-116 colon
A549 NSCLC = system: A549 NSCLC
SF-295 CNS = system: SF-295 CNS
UACC-257 melanoma = system: UACC-257 melanoma
SF-539 CNS = system: SF-539 CNS
OVCAR-3 ovarian = system: OVCAR-3 ovarian

Measured: TGI

O=C(CCc1ccc(O)cc1)NCCCNC(=O)CCc1ccc(O)cc1
> 100 µM: all assays above

— PubChem BioAssay (NCI)
